From publication PMC8830292, “Anti-Toxoplasma gondii effect of lupane-type triterpenes from the bark of black alder (Alnus glutinosa) and identification of a potential target by reverse docking” (Parasite, 2022)

How the values were obtained:
[1] = system: Toxoplasma gondii tachyzoites (strain RH, type I); assay: Screening at 10 μM: T. gondii parasite growth inhibition in Vero cells (enzyme immunoassay); type: cell-based; settings: for inhibition at 10 µM / parasite growth inhibition: 72 h, triplicate, 10 μM
Description: (§1) All the experiments were performed in triplicate. Compound screening was performed at 10 μM in 96-well plates. Thus, 20,000 Vero cells contained in 200 μL of culture medium were filled in each well and left to adhere for 4 h at 37 °C and 5% of CO2. Then, 50,000 parasites contained in 50 μL of culture medium were filled, followed by 3 h of incubation in the same conditions. Wells were then emptied and 100 μL of solutions containing each drug at a final concentration of 10 μM were added. Incubation continued for 72 h.
(§2) The IC50 assays were processed in the same conditions as previously described. Dilutions were performed in a culture medium. The IC50 was determined using an adapted protocol from Doliwa et al.. Parasites and cells were first fixed with 100 μL of cold methanol for 5 min at −20 °C. Cells were then rehydrated with 100 μL of PBS at room temperature. Wells were then emptied and filled with 60 μL of a solution of anti-T. gondii rabbit antibody (Ref. 9070-0556, Biorad) diluted at 1/1000. After 1 hour of incubation at 37 °C, wells were washed three times with PBS, and 60 μL of anti-rabbit IgG horseradish conjugated goat antibody (Ref. 170-6515, Bio-Rad) at 1/1000 were added, followed by 1 h of incubation at 37 °C. The wells were washed three more times, and 200 μL of a solution of o-phenylenediamine dihydrochloride (Sigma, France) was added. After 15 min at room temperature, the enzymatic reaction was stopped by the addition of 50 μL of hydrochloric acid (HCl) 3 M. To finish, 200 μL of each well were transferred to a new well and a spectrophotometer reading was performed at 492 nm, corrected at 630 nm. Each experiment was performed with three controls: control with host cells alone, control with host cells and parasites without the drug for parasite multiplication, and control with host cells with parasites and pyrimethamine at 1 μM.

[2] = system: Toxoplasma gondii tachyzoites (strain RH, type I); assay: Half maximal inhibitory concentration (IC50) on T. gondii (enzyme immunoassay); type: cell-based; settings: for Selectivity index (SI): SI = CC50/IC50 (Vero cells / T. gondii); for IC50: Toxoplasma gondii, T. gondii RH in Vero cells, 72 h
Description: as §1, §2

[3] = Cytotoxicity evaluation, Uptiblue viable cell-counting assay; settings: African green monkey
Description: (§3) Vero cells (host cells of T. gondii tachyzoite) were purchased at ATCC (reference CCL-81), grown in Iscove Modified Dulbecco Media (IMDM) GlutaMAX medium (Gibco) supplemented with 5% decomplemented fetal calf serum with 1% penicillin/streptomycin. The culture was incubated at 37 °C and 5% CO2. Toxoplasma gondii tachyzoites (strain RH, type I) were grown in the same conditions as Vero cells except that the concentration of fetal calf serum was 2%.
(§4) The in vitro cytotoxicity was evaluated on Vero cell cultures using Uptiblue® viable cell-counting assay (Interchim, Montluçon, France). CC50 assays were performed in 96-well plates containing 20,000 Vero cells and 200 μL of culture medium identical to the one used for Vero cell maintenance. After 4 h of incubation, wells were emptied. The IC50 was performed with 100 μL of solutions containing the tested compounds with a final concentration range of 0–80 μM. After 72 h of incubation, wells were washed with 100 μL of phosphate-buffered saline (PBS) (Sigma-Aldrich, Saint-Quentin-Fallavier, France). Then, 100 μL of IMDM culture medium supplemented with 2% (v/v) of calf fetal serum and 10% (v/v) of Uptiblue® were added to each well. Plates were placed at 37 °C and 5% of CO2 for 3 h. Spectrophotometric measures were performed at 570 nm and corrected at 600 nm on an AMR-100 spectrophotometer (AllSheng, Hangzhou, China).

L. donovani = system: L. donovani; parameters: method as in earlier work; settings: 50 μM; cited from earlier work
Vero cells [4] = settings: cited from earlier work
Vero cells [5] = assay: Cytotoxicity evaluation, Uptiblue viable cell-counting assay
Description: as §3, §4

T. gondii [6] = system: T. gondii; parameters: method as in PMID 23776166; settings: in vitro growth of T. gondii; cited from earlier work
P. falciparum = system: P. falciparum; parameters: method as in PMID 11239932; settings: P. falciparum growth; cited from earlier work
[7] = system: Plasmodium falciparum K1 strain; parameters: method as in PMID 21438586; settings: cited from earlier work
T. gondii [8] = system: T. gondii; parameters: method as in PMID 20441162; settings: cited from earlier work
Vero cells [9] = system: Vero cells; parameters: method as in PMID 20441162; settings: cited from earlier work
Solubility in DMSO = type: physicochemical
Description: Stock solutions at 1 mg/mL were prepared in cell culture grade dimethyl sulfoxide (DMSO, PanReac AppliChem, Darmstadt, Germany). Subsequent dilutions were made in a culture medium identical to the one used for tachyzoite maintenance.

## C=C(C)[C@@H]1CC[C@]2(C)CC[C@]3(C)[C@H](CC[C@@H]4[C@@]5(C)CC[C@H](O)C(C)(C)[C@@H]5CC[C@]43C)[C@@H]12 [Lupeol (5), lupeol]
[1]; Toxoplasma gondii, Vero
  inhibition at 10 µM: 60%
[2]
  Selectivity index (SI): >5.8
  IC50: 13.8 ± 4 µM
[3]; Vero cells (ATCC CCL-81)
  CC50 at 72 h: > 80 µM

## β-sitostenone [β-sitostenone (9)]
[1]
  parasite growth inhibition: did not show any relevant activity
[1]; listed as β-sitostenone
  parasite growth inhibition: no specific activity

## C=C(C)[C@@H]1CC[C@]2(C(=O)O)CC[C@]3(C)[C@H](CC[C@@H]4[C@@]5(C)CC[C@H](O)C(C)(C)[C@@H]5CC[C@]43C)[C@@H]12 [Betulinic acid (3), betulinic acid]
[1]; Toxoplasma gondii, Vero
  inhibition at 10 µM: 49%
[2]
  Selectivity index (SI): >9.6
  IC50: 8.3 ± 2.7 µM
[3]
  CC50 at 72 h: > 80 µM
L. donovani
  inhibition of L. donovani: 39.8%

## C=C(C)[C@@H]1CC[C@]2(CO)CC[C@]3(C)[C@H](CC[C@@H]4[C@@]5(C)CC[C@H](O)C(C)(C)[C@@H]5CC[C@]43C)[C@@H]12 [Betulin (1), betulin]
[1]; Toxoplasma gondii, Vero
  inhibition at 10 µM: 44%
[2]
  Selectivity index (SI): >6.0
  IC50: 13.3 ± 7.3 µM
[3]
  CC50 at 72 h: > 80 µM
L. donovani
  inhibition of L. donovani: 35.0%
Vero cells [4]
  CC50: 164 µM

## C=C(C)C1CCC2(C(=O)OC)CCC3(C)C(CCC4C5(C)CCC(=O)C(C)(C)C5CCC43C)C12 (stereo not drawn) [Betulonic acid methyl ester (8), betulonic acid methyl ester]
[2]
  Selectivity index (SI): >25.8
  IC50: 3.1 ± 0.4 µM
[3]
  CC50 at 72 h: > 80 µM

## C=C(C)C1CCC2(C(=O)O)CCC3(C)C(CCC4C5(C)CCC(=O)C(C)(C)C5CCC43C)C12 (stereo not drawn) [Betulonic acid (7), Betulonic acid]
[2]
  Selectivity index (SI): >18.6
  IC50: 4.3 ± 1.4 µM
[3]; Vero cells (ATCC CCL-81)
  CC50 at 72 h: > 80 µM
Vero cells [5]; 80 μM on Vero cells
  cytotoxicity: without cytotoxicity
L. donovani
  inhibition of L. donovani: 97.6%

## C=C(C)[C@@H]1CC[C@]2(C=O)CC[C@]3(C)[C@H](CC[C@@H]4[C@@]5(C)CC[C@H](O)C(C)(C)[C@@H]5CC[C@]43C)[C@@H]12 [Betulinaldehyde (2), betulinaldehyde]
[1]; Toxoplasma gondii, Vero
  inhibition at 10 µM: 93%
[2]
  Selectivity index (SI): >15.7
  IC50: 5.1 ± 0.6 µM
[3]; Vero cells (ATCC CCL-81)
  CC50 at 72 h: > 80 µM

## Oc1cc(Cl)ccc1Oc1ccc(Cl)cc1Cl [triclosan]
T. gondii [6]
  IC50: 3 µM
P. falciparum
  IC50: 1 µM

## C=C(C)[C@@H]1CC[C@]2(CO)CC[C@]3(C)[C@H](CC[C@@H]4[C@@]5(C)CCC(=O)C(C)(C)[C@@H]5CC[C@]43C)[C@@H]12 [Betulone (4), betulone]
[1]; Toxoplasma gondii, Vero
  inhibition at 10 µM: 99%
[2]
  Selectivity index (SI): >29.6
  IC50: 2.7 ± 1.2 µM
[2]; listed as betulone
  Selectivity index (SI): greater than 29
[3]
  CC50 at 72 h: > 80 µM
[7]
  IC50: 3 µM

## CC1(C)CC[C@]2(C(=O)O)CC[C@]3(C)C(=CC[C@@H]4[C@@]5(C)C[C@@H](O)[C@H](O)C(C)(C)[C@@H]5CC[C@]43C)[C@@H]2C1 [maslinic acid]
T. gondii [8]
  LD50: 53.8 µM
Vero cells [9]
  LD50: 236.6 µM

## C=C(C)[C@@H]1CC[C@]2(C)CC[C@]3(C)[C@H](CC[C@@H]4[C@@]5(C)CCC(=O)C(C)(C)[C@@H]5CC[C@]43C)[C@@H]12 [Lupenone, lupenone]
Solubility in DMSO
  solubility in DMSO: not soluble in DMSO

## CCc1nc(N)nc(N)c1-c1ccc(Cl)cc1 [Pyrimethamine (10), pyrimethamine, reference compound]
[1]; Toxoplasma gondii, Vero, 1 μM
  inhibition at 1 µM: 78%
[2]
  Selectivity index (SI): 38.0
  IC50: 0.7 ± 0.2 µM
[3]; Vero cells (ATCC CCL-81)
  CC50 at 72 h: 27.7 µM
Vero cells [5]; 10 μM
  cytotoxicity: cytotoxic
